In ChEMBL document CHEMBL5303304, “EUbOPEN Chemogenomics Library - IncuCyte” (2023):

Assays:
Assay type in all cases: toxicity, cell-based
U2OS = assay: Incucyte cell viability with U2OS; settings: human, 10 µM, compound concentration 10 uM
HEK-293T = assay: Incucyte cell viability with HEK293T; settings: human, 10 µM, compound concentration 10 uM
Fibroblast = assay: Incucyte cell viability with human fibroblast; settings: 10 µM, compound concentration 10 uM
Note: unitless GR value; below 1 slowed growth and below 0 cell loss.

SMILES	Growth Rate (U2OS; 0 h, replicate number 2)	Growth Rate (U2OS; 6 h, replicate number 1)	Growth Rate (U2OS; 12 h, replicate number 1)	Growth Rate (HEK-293T; 6 h, replicate number 1)	Growth Rate (HEK-293T; 18 h, replicate number 1)	Growth Rate (HEK-293T; 24 h, replicate number 1)	Growth Rate (Fibroblast; 6 h, replicate number 2)	Growth Rate (Fibroblast; 24 h, replicate number 1)	Growth Rate (U2OS; 0 h, replicate number 1)	Growth Rate (U2OS; 12 h, replicate number 2)	Growth Rate (U2OS; 24 h, replicate number 1)	Growth Rate (U2OS; 24 h, replicate number 2)	Growth Rate (HEK-293T; 0 h, replicate number 1)	Growth Rate (Fibroblast; 0 h, replicate number 2)	Growth Rate (U2OS; 18 h, replicate number 1)	Growth Rate (HEK-293T; 6 h, replicate number 2)	Growth Rate (HEK-293T; 12 h, replicate number 1)	Growth Rate (HEK-293T; 12 h, replicate number 2)	Growth Rate (HEK-293T; 18 h, replicate number 2)	Growth Rate (HEK-293T; 24 h, replicate number 2)	other results
O=C(NCc1cccnc1OCC(F)(F)F)c1cncc(-c2ccc(Cl)cc2)c1	-0.65	0.44	0.98	0.82	0.84	0.81	-1	0.21													Growth Rate (Fibroblast; 12 h, replicate number 2): 0.57; Growth Rate (Fibroblast; 18 h, replicate number 1): -0.38; Growth Rate (Fibroblast; 18 h, replicate number 2): 0.96
CCCCCCC(Sc1nc(Cl)cc(NCc2ccc(-c3ccccc3)cc2)n1)C(=O)O (centres undefined)			0.89					0.91	0.82	0.97	0.94	0.96	0.04	-0.63							
O=C1NC(Nc2ccccc2)=N/C1=C\c1ccc2c(c1)OCO2				0.83	0.43	0.56				0.39	0.95	0.66	0.4	-0.92	0.85	0	0.37	0.19	0.47	0.33	Growth Rate (U2OS; 6 h, replicate number 2): 0.78; Growth Rate (U2OS; 18 h, replicate number 2): 0.66; Growth Rate (HEK-293T; 0 h, replicate number 2): 0.1; Growth Rate (Fibroblast; 6 h, replicate number 1): -0.96
C[C@H](CCC(=O)[O-])[C@H]1CC[C@H]2[C@@H]3[C@@H](O)C[C@@H]4C[C@H](O)CC[C@]4(C)[C@H]3CC[C@]12C.[Na+]	0.8	0.4	0.47				0.93		-0.51	1			0.59	0.84	0.72					1	Growth Rate (Fibroblast; 6 h, replicate number 1): 0.88; Growth Rate (Fibroblast; 12 h, replicate number 2): 0.91; Growth Rate (Fibroblast; 18 h, replicate number 1): 0.83; Growth Rate (Fibroblast; 18 h, replicate number 2): 0.77; Growth Rate (Fibroblast; 24 h, replicate number 2): 0.88
CCc1ccc(-c2ncn(CC3(F)CCN(C)CC3)c2-c2ccnc3[nH]ccc23)nc1		0.66	0.71	0	0.76	0.9	0.83	0.93	0.47	0.69	0.87	0.75	-0.12	0.42	0.85	0.08	0.43	0.35	0.72	0.69	Growth Rate (U2OS; 18 h, replicate number 2): 0.83; Growth Rate (HEK-293T; 0 h, replicate number 2): 0.98; Growth Rate (Fibroblast; 0 h, replicate number 1): 0.78; Growth Rate (Fibroblast; 18 h, replicate number 1): 0.78; Growth Rate (Fibroblast; 18 h, replicate number 2): 0.97
CCc1c(-c2ccc3[nH]ncc3c2)cnc(N)c1-c1ccc(O)cc1	-0.93			0.85		0.99					0.92		-0.12	-0.31		0.91	0.8	0.9	0.91	0.88	Growth Rate (U2OS; 6 h, replicate number 2): 0.84; Growth Rate (Fibroblast; 6 h, replicate number 1): 0.91
CCN1/C(=C/C(C)=O)Sc2ccc(OC(C)=O)cc21	-0.86		0.91	-0.36	0.02	0.09	-0.62	0.91	0.39	0.62	0.98	0.9		0.08	1	0.16	0.1	0.67	0.66	0.67	Growth Rate (U2OS; 6 h, replicate number 2): 0.95; Growth Rate (U2OS; 18 h, replicate number 2): 0.94
